Legend:
SIRT5 = SIRT5 (Homo sapiens, UniProt Q9NXA8); experiment: Deacetylation activity selectivity, SIRT5; assay type: biochemical
Method: (§1) Fluor-De-Lys (FDL) assays were used for the examination of the deacetylation activities of sirtuins as described previously. For the detection of SIRT6 activity, the 50-μL reaction mixture contained 5 μM SIRT6, 2.5 mM NAD^+ (β-Nicotinamide adenine dinucleotide hydrate, Sigma, N1636), 75 μM RHKK-Ac-AMC (GL Biochem, Shanghai), compounds/DMSO, and assay buffer. The reactions were incubated at 37 °C for 2 h, added 50 μL stop solution (40 mM nicotinamide, 6 mg/mL trypsin) at 25 °C for 30 min. Fluorescence intensity was measured at an excitation wavelength of 360 nm and an emission wavelength of 460 nm. IC50 values were calculated in GraphPad Prism version 8.00.
(§2) Based on the above results, 8a was further investigated in this study. […] To further evaluate the selectivity of 8a for SIRT6, we examined the effect of 8a on the deacetylation activity of other HDAC family members, including HDAC1-HDAC11, SIRT1-SIRT3 and SIRT5. […] Furthermore, to confirm binding of 8a to SIRT6 in cells, we carried out the cellular thermal shift assay (CETSA). The CETSA approach builds on the thermal shift assay concept where ligand binding to its target protein enhances the target protein stability. We observed that the thermal stability of SIRT6 increased after 8a treatment (Figs. 2c, d).

HDAC3 = HDAC3 (Homo sapiens, UniProt O15379); experiment: Deacetylation activity selectivity, HDAC3; assay type: biochemical
HDAC3, sequence (O15379 whole entry, species assumed): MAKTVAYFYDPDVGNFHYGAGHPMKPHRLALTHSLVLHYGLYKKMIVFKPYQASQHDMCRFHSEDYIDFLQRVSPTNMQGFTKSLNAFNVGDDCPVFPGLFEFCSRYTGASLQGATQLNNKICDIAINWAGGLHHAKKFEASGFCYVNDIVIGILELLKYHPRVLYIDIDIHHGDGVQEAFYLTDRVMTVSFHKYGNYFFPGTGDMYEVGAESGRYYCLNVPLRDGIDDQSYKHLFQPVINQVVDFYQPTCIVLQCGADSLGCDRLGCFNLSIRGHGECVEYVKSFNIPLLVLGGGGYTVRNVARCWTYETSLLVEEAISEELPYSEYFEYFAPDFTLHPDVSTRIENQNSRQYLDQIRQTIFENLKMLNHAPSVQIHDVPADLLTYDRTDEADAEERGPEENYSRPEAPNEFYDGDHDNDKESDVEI
HDAC3, sequence (Q9Y618 395-489 partner limits assumed, species assumed): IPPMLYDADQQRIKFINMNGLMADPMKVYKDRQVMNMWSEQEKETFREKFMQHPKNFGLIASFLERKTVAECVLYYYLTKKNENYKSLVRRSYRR
Description: as §2

HDAC6 = HDAC6 (Homo sapiens, UniProt Q9UBN7); experiment: Deacetylation activity selectivity, HDAC6; assay type: biochemical
HDAC6, sequence (Q9UBN7 whole entry, species assumed): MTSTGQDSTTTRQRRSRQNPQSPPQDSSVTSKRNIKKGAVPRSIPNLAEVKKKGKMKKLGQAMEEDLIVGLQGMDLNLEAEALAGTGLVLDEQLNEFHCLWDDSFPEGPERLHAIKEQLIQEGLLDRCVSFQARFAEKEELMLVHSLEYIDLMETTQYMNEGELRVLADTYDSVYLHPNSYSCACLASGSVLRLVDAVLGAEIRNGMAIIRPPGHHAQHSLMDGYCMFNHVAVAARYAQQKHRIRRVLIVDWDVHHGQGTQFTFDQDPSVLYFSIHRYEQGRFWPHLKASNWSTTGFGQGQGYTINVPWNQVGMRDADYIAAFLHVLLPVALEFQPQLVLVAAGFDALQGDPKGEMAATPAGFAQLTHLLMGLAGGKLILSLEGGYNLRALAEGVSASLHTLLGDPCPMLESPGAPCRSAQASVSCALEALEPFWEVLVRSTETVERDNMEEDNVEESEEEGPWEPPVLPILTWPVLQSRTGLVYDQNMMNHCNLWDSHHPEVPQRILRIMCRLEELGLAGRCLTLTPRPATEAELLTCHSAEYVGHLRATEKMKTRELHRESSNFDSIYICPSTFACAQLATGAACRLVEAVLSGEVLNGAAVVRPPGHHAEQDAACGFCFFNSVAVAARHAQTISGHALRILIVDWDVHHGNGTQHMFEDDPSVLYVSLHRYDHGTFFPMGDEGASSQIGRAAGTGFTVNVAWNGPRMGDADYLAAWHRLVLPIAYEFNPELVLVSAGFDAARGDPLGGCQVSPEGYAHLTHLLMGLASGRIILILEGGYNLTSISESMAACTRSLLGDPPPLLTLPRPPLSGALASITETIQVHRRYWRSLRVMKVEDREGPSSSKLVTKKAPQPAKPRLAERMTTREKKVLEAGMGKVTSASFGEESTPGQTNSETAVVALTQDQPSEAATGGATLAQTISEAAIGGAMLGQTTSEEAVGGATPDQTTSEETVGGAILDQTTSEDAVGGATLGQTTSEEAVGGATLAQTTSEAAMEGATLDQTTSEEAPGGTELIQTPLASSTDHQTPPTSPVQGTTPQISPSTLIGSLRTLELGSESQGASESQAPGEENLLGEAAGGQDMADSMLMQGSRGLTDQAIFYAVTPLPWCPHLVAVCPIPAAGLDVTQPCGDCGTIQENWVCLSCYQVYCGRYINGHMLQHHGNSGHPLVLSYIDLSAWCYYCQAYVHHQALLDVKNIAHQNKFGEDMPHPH
Description: as §2

[1] = system: H3K9 acetylation (SIRT6 substrate); experiment: H3K9 acetylation in Hela cells, western blot; assay type: cell-based
Method: Cells were harvested and lysed in a lysis buffer (solarbio, R0010) supplementing 1 mM PMSF and protease inhibitor (TargetMol, USA). […] Then, the membranes were detected by Tanon 5200 (Tanon, Beijing, China).
To investigate the SIRT6 activity at cellular levels, we examined the acetylation status of H3K9, which is a well-known SIRT6 substrate. […] As these compounds can show violet fluorescence, intracellular localizations of these compounds were evaluated by confocal microscopy.

[2] = biological target: T1, SIRT6 mutant (V70A and F86A) (Homo sapiens, UniProt Q8N6T7, F86A/V70A); experiment: FDL assay on SIRT6 mutant (V70A and F86A); assay type: biochemical
T1 construct: The human full-length SIRT6 gene was inserted into the prokaryotic expression vector (pET-28a (+)); inferred from the pET-28a(+) vector and Ni-NTA purification of the wild-type construct); made in house; host or cells: Escherichia coli BL21 (DE3) (inferred from the wild-type protocol)
T1 sequence (Q8N6T7 whole entry V70A/F86A): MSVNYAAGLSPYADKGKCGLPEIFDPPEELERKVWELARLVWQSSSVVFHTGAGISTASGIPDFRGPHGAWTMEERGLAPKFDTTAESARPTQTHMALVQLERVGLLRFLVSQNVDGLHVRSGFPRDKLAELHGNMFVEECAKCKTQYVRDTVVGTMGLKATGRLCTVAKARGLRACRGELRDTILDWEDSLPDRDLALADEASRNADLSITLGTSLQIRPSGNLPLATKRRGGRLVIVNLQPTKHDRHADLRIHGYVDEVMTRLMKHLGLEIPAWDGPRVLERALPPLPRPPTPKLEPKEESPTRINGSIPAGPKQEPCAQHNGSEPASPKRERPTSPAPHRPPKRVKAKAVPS
Method: as §1
To explore the interaction mechanism, we performed the molecular docking experiment between SIRT6 (PDB ID: 6QCJ) and 8a. […] 8a mainly formed hydrogen bond with the backbone amino group of D187 and the ribose hydroxyl group of the coenzyme NAD^+, and stabilized the whole system by hydrophobic interactions with key amino acids such as I8, V70, W71, F82 and F86 (Fig. 2g). To verify this binding model, the mutant (V70A and F86A) of SIRT6 was constructed by site mutation. […] Moreover, there were also some other potential binding pockets predicted by molecular docking (data not shown). Based on the prediction, we constructed other two SIRT6 mutants (E140A/R195A and T184A/S191A/P193A/E283A). […]

BXPC-3 cells [3] = experiment: MTT proliferation assay, BXPC-3; assay type: cell-based; settings: 72 h
Method: BXPC-3 and PANC-1 cells were plated in 96-well plates at 5000 cells per well. After 12 h attachment, varying concentrations of 8a were added into the culture medium for 72 h. Then 10 μL MTT (5 mg/ml) solution was added into per well for 4 h at 37 °C. After removing medium, formazan crystals were dissolved in 150 µL DMSO. The cells viability was quantified by measuring the absorbance at 570 nm.

BXPC-3 cells [4] = experiment: Western blot of BXPC-3 cells; assay type: cell-based
Method: Cells were harvested and lysed in a lysis buffer (solarbio, R0010) supplementing 1 mM PMSF and protease inhibitor (TargetMol, USA). […] The blocked membrane was incubated with primary antibodies:SIRT6 (1:1000, Cell Signaling Technology, Cat#12486S, RRID:AB_2636969), Histone H3 Antibody (1:1000, Cell Signaling Technology, Cat#9715S, RRID:AB_331563), β-Actin (1:2000, Cell Signaling Technology, Cat#4970S, RRID:AB_2223172), Cleaved caspases-3 (1:1000, Cell Signaling Technology, Cat#9661S, RRID:AB_2341188), Cleaved Caspase-9 (Asp315) (1:1000, Cell Signaling Technology, Cat#20750S,RRID:AB_2798848), Cleaved PARP (1:1000, Cell Signaling Technology, Cat#5625S, RRID:AB_10699459), AKT (1:1000, Cell Signaling Technology, Cat#9272S, RRID:AB_329827), Phospho-AKT (Ser473) (D9E) (1:1000, Cell Signaling Technology, Cat#4060S, RRID:AB_2315049), ERK1/2 (1:1000, Cell Signaling Technology, Cat#4695S, RRID:AB_390779), Phospho-p44/42 MAPK (ERK1/2) (Thr202/Tyr204) (1:1000, Cell Signaling Technology, Cat#4370S, RRID:AB_2315112), Cyclin D1 (E3P5S) (1:1000, Cell Signaling Technology, Cat#55506 S, RRID:AB_2827374), Phospho-mTOR(Ser2448) (1:1000,Cell Signaling Technology, Cat#5536S, RRID:AB_10691552), Phospho-p70S6Kinase (Thr421/Ser424) (1:1000, Cell Signaling Technology, Cat#9204 S, RRID:AB_2265913), Phospho-Histone H2A.X (Ser139) (1:1000, Cell Signaling Technology, Cat#9718S, RRID:AB_2118009) at 4 °C overnight. After being washed with TBST, the membranes were incubated with horseradish peroxidase-conjugated secondary antibodies at room temperature for 1 h. Then, the membranes were detected by Tanon 5200 (Tanon, Beijing, China).

SIRT5, sequence (Q9NXA8 37-310, species assumed): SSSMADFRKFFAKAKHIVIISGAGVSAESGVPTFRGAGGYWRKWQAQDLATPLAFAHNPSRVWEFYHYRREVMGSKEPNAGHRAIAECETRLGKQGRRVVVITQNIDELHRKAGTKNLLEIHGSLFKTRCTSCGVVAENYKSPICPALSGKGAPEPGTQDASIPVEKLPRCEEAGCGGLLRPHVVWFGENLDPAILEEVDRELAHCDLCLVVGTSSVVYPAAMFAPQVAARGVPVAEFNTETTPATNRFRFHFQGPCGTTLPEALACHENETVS

IC50 (SIRT5): > 200 µM
IC50 (HDAC3): 112 ± 2.05 µM
IC50 (HDAC6): 96.8 ± 1.98 µM
IC50 ([2]; FDL assay): 79 ± 9 µM
increase of IC50 to the mutant (V70A and F86A) ([2]; versus wild-type SIRT6): approximately 10 fold
IC50 (BXPC-3 cells [3]): 7.56 µM
SMILES: Br.CN(C)C(SCCCCCCn1cnc2c(-c3cc(Br)c(Br)[nH]3)nccc21)=[N+](C)C.[Cl-] [Compound 8a]
acetylation levels of H3K9 [1]: significantly increased
cyclin D1 expression (BXPC-3 cells [4]; BXPC-3, 48 h, dose-dependent): decreased
expression of cleaved-PARP, cleaved-Caspase3, and cleaved-Caspase9 (BXPC-3 cells [4]; BXPC-3, western blot): significantly up-regulated
p-mTOR, p-P70S6K, p-AKT, and p-ERK (BXPC-3 cells [4]; BXPC-3, western blot): significantly down-regulated
acetylation level of H3K9 (BXPC-3 cells [4]; BXPC-3 cells, western blot, dose-dependent): increased
